Results as given in patent publication US5883084A, “Treatment of respiratory diseases utilizing α-tocopheryl-phosphocholine” (Clarion Pharmaceuticals Inc., priority 1998, dated 1999).

Columns and labels:
premature fetal rabbits = assay: Surfactant activity in RDS model using premature fetal rabbits (dynamic lung compliance); type: in vivo, rabbit; details: fetal rabbits 27 days gestation, 0.2 mL endotracheal instillation, 30 minute intervals for 90 minutes
Description: A common in vivo model for the evaluation of surfactants is lung compliance in premature fetal rabbits. This method is described in Revak et al., Am. Rev. Respir. Dir. (1986) 134:1258-1265. In this assay, the effectiveness of the subject compounds as lung surfactants is determined by evaluating dynamic lung compliance in premature fetal rabbits which are known to have difficulty initiating breathing due to low levels of natural lung surfactant.
1. The test animals are fetal rabbits delivered prematurely at 27 days of gestation.
2. The test solution is prepared by suspending the Formula I compound ([…]) in 6 mL of 10 mM HEPES buffer with sodium chloride (150 mM) at a pH of 7.4.
3. 0.2 mL of test solution is administered to the fetal rabbit before breathing commenced by endotracheal instillation and then monitored for breathing. The control group receives saline.
4. The fetal rabbit is ventilated and monitored for breathing.
5. After 30 minutes, the rabbit is examined for quality of breathing and color. A healthy pink color is indicative of good breathing. […] The higher the value of measured compliance, the better the breathing of the test animal.
6. Compliance values are determined at 30 minute intervals for 90 minutes.

[1] = test system: RAW 264.7 murine monocyte/macrophage cell line (PMA-stimulated respiratory burst); assay: In vitro anti-inflammatory activity by inhibition of macrophage activation (luminol chemiluminescence, PMA-stimulated); type: cell-based, mouse; details: for inhibition at 1000 µM / inhibition at 3000 µM / inhibition at 10000 µM / inhibition at 30000 µM: Mus musculus, RAW264.7, RAW 264.7, PMA 100 ng, luminol; for inhibition at 1000 µM: 1 mM; for inhibition at 3000 µM: 3 mM; for inhibition at 10000 µM: 10 mM; for inhibition at 30000 µM: 30 mM
Description: Activation of alveolar macrophages is a critical component of pulmonary inflammation. In their activated state, alveolar macrophages secrete a variety of inflammatory mediators and reactive oxygen species. In the present in vitro model of inflammation, mouse macrophages are activated by phorbol-12-myristate-13-acetate (PMA). The intensity of macrophage activation in the presence or absence of the subject compounds is determined by measuring the respiratory burst (release of reactive oxygen species) of the macrophages.
The RAW 264.7 cell line (American Type Culture Collection, Rockville, Md., USA, Accession No. TIE 71) is a murine monocyte/macrophage line, the cells of which show many of the differentiative functions of a macrophage. Like macrophages, the cells are capable of phagocytosis and undergo an oxidative burst (increased oxygen consumption) and production of oxygen radicals (e.g., superoxide) in response to appropriate signals. Agents that inhibit the activation of these cells in vitro so as to inhibit the respiratory burst and corresponding production of oxygen radicals associated with activation interdict a critical step in the inflammatory process.
The respiratory burst and corresponding production of oxygen radicals that accompany macrophage activation can be measured in a variety of ways, including chemiluminescence based on the reaction of the oxygen radicals with luminol added to the culture medium (see M. A. Trush et al., 1978, "The Generation of Chemiluminescence by Phagocytic Cells.", Methods in Enzymology 57: 462-494). Chemiluminescence generated from luminol in the culture medium of macrophage cell lines is recognized in the art as a marker of macrophage activation. Materials:
Cell line: RAW 264.7 (ATCC TIB-71, attachment dependent);
Culture medium: Dulbecco's Modified Eagle's Medium (DMEM, Sigma Chemical Co. Cat. No. D-7777) with 10% Fetal Bovine Serum (FBS);
Standard protocol for culturing cell lines: in T-75 or T-150 flasks; 37° C.; 95% air, 5% CO2; 100% humidity;
Cell line is passaged when approximately 80% confluent; with trypsin (1 mg/mL) and ethylenediamine tetraacetic acid (EDTA) (1 mM in Ca-Mg free Hank's balanced salt solution); at 1:4 to 1:5 split;
All procedures are performed aseptically in a Class II biological safety cabinet using standard Biosafety Level 2 (BL-2 containment procedures. In order to prevent genetic drift in stock cell lines, fresh cultures are prepared at approximately monthly intervals with cells thawed from liquid nitrogen storage. Methodology:
After cell passage, count cells with a hemocytometer; Adjust cell concentration to approximately 1,000,000 cells per mL;
Suspend cells in DMEM lacking phenol red and without FBS;
Pipette 1 mL of cell suspension into a standard luminometer cuvette (12×75 mm), commercially obtainable from Analytical Luminescence Laboratories, San Diego, Calif., USA;
Add luminol to final concentration of 0.2 mM;
Add test compound dissolved in phosphate buffered saline (PBS), or in dimethyl sulfoxide (DMSO) for final concentration levels ranging from 1 to 30 mM;
Add 100 nanograms of phorbol myristate acetate (PMA); and
Wait 1 minute and read photo counts (i.e., luminescence) on a Monolight 2010 luminometer available from Analytical Luminescence Laboratories, San Diego.

Mouse Tracheal Mucus = assay: Mucolytic activity in mouse tracheal mucus (phenol red secretion, aerosol); type: in vivo; details: mice, 25 mg/mL in saline, approximately 100 mg/kg, 5 mice, saline control zero percent
Text: The invention provides a method of alleviating respiratory distress due to tenacious pulmonary mucous secretions in a patient suffering from such distress. In the preferred embodiment, the method is accomplished by the intermittent inhalation of an aerosol or dry powder formulation of α-tocopheryl-phosphocholine to deliver an effective mucolytic amount of α-tocopheryl-phosphocholine to the lung airways. […] The in vivo mucolytic assay is similar to that described by Chand et al. Agents and Actions, (1993) 38:165-170, incorporated herein by reference.
The procedure, which delivers the test compound to mice as an aerosol, is a modified assay for the evaluation of mucolytic activity in mice as described by Chand et al., previously cited.
1. The test animals are Hsd:1CR(CD-1) mice that weigh approximately 25 g each.
2. The test compound is diluted in normal saline to a concentration of 25 mg/mL and administered using a human De Vilbiss atomizer Model No. 15 at approximately 100 mg/kg. The control group receives saline. The nozzle is placed in the mouth of the mouse and 2 spray doses are given.
3. After 30 minutes, phenol red dissolved as a 5% solution in saline is given IP at a dose of 0.1 mL/10 g body weight.
4. […]
6. The amount of phenol red secreted into the trachea is quantitated photometrically at 546 nm. […]

[2] = test system: Histamine-Induced Airway Resistance; assay: Histamine-induced airway resistance in anesthetized guinea pigs (total pulmonary resistance); type: in vivo, guinea pig; details: after induction with histamine, salbutamol 10 μg/kg or same equivalent dosage
Description: The following is a protocol for the evaluation of anti-histamine activity in anesthetized guinea pigs.
1. Guinea pigs of 650-1000 g are used to facilitate catheterization of the jugular vein and carotid artery. The guinea pigs are anesthetized with 35-45 mg/kg pentobarbital sodium. When or if the recordings are unstable, anesthetic additions are made during the course of the intervention. The cutdown is a ventral medial incision over the cervical area so that the trachea, jugular vein and carotid artery can be cannulated. The animals are immediately attached to a volume regulated Harvard® rodent respirator, Model 683, via a tracheostomy and the respirator is set at 60 respirations per minute and a volume of 8 ml/kg to maintain a normal arterial P-CO2 of approximately 40 mmHg. […] These two parameters are measured before and after each drug is given and at each increment in the dose response studies with each drug candidate and recorded. Total pulmonary resistance (TPR) is calculated as the difference between the expiratory pressure and inspiratory pressures with a constant volume.
After the anesthetic and muscle relaxant are given, the animal is allowed to stabilize. […] The dose-related increases or decreases are quantitated against these controls to determine the percent inhibition of histamine activity. […]

Row | SMILES | compliance values (dynamic lung compliance) (premature fetal rabbits) | anti-inflammatory activity with increasing concentration ([1]; 1 to 30 mM, in contrast to α-tocopherol) | inhibition at 1000 µM [1] | inhibition at 3000 µM [1] | inhibition at 10000 µM [1] | inhibition at 30000 µM [1] | average measured percent change in mucolytic activity (Mouse Tracheal Mucus) | TPR course after administration [2]
1 | Cc1c(C)c2c(c(C)c1OP(=O)([O-])OCC[N+](C)(C)C)CCC(C)(CCCC(C)CCCC(C)CCCC(C)C)O2 (stereo not drawn) [CPR 2001, α-tocopheryl-phosphocholine] | significantly greater compliance values | anti-inflammatory activity markedly increases | 5% | 13% | 31% | 56% | about 82.6% | 
2 | CC(=O)N[C@@H](CS)C(=O)O [N-acetylcysteine, reference compound] |  |  |  |  |  |  | about 59.5% | 
3 | CC(C)(C)NCC(O)c1ccc(O)c(CO)c1 (stereo not shown) [salbutamol] |  |  |  |  |  |  |  | briefly increased and then decreased below the control value
4 | Cc1c(C)c2c(c(C)c1O)CCC(C)(CCCC(C)CCCC(C)CCCC(C)C)O2 (stereo not drawn) [α-tocopherol, reference compound] |  |  | -3% | -6% | -6% | -14% |  | 
